The values below come from patent US8053437B2, “Furo[3. 2-B] pyrrol derivatives” (Amura Therapeutics Limited, priority 2006, dated 2011).

In data set [1] the target is T1, Human recombinant cathepsin K (Homo sapiens, UniProt P43235).
T1 construct: purchased B. Turk, Josef, Stefan Institute, Ljubljana, Slovenia
T1 sequence (P43235 115-329): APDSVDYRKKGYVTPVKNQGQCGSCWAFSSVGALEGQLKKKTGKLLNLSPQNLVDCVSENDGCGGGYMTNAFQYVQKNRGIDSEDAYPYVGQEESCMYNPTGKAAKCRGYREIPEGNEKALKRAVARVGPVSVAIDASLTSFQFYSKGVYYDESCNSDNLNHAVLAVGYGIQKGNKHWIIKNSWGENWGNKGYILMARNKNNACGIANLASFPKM
As to the kind of experiment: In vitro cathepsin Ki inhibition measurements. Conditions: read-out: In vitro Ki (nM) vs Cath K. It counts as biochemical. As to the method:
Stock solutions of substrate or inhibitor were made up to 10 mM in 100% dimethylsulfoxide (DMSO) (Rathburns, Glasgow, U.K.) and diluted as appropriately required. In all cases the DMSO concentration in the assays was maintained at less than 1% (vol./vol.). The equilibrium inhibition constants (Ki^ss) for each compound were measured under steady-state conditions monitoring enzyme activity as a function of inhibitor concentration. The values were calculated on the assumption of pure competitive behaviour (Cornish-Bowden, A. Fundamentals of enzyme kinetics Portland Press; 1995, 93-128.). Human recombinant cathepsin K (0.25 nM final; B. Turk, Josef, Stefan Institute, Ljubljana, Slovenia), was routinely assayed in 100 mM sodium acetate; pH 5.5 containing 1 mM EDTA, 10 mM L-cysteine and 1.8 μM Z-Leu-Arg-AMC ([S]=KM).
The apparent inhibition constant (Ki) for each compound was determined on the basis that inhibition was reversible and occurred by a pure-competitive mechanism. The Ki values were calculated, from the dependence of enzyme activity as a function of inhibitor concentration, by direct regression analysis (Prism v 3.02) using Equation 2 (Cornish-Bowden, A., 1995).
In situations where the apparent dissociation constant (Ki^app) approached the enzyme concentrations, the Ki^app values were calculated using a quadratic solution in the form described by Equation 3 (Morrison, J. F. Trends Biochem. Sci., 7, 102-105, 1982; Morrison, J. F. Biochim. Biophys. Acta, 185, 269-286, 1969; Stone, S. R. and Hofsteenge, J. Biochemistry, 25, 4622-4628, 1986).
In Equation 3 ‘vi’ is the observed residual activity, ‘F’ is the difference between the maximum activity (i.e. in the absence of inhibitor) and minimum enzyme activity, ‘Eo’ is the total enzyme concentration, ‘Ki^app’ is the apparent dissociation constant and ‘Io’ is the inhibitor concentration. Curves were fitted by non-linear regression analysis (Prism) using a fixed value for the enzyme concentration. Equation 4 was used to account for the substrate kinetics, where ‘Ki’ is the inhibition constant, ‘[So]’ is the initial substrate concentration and ‘KM^app’ is the apparent macroscopic binding (Michaelis) constant for the substrate (Morrison, 1982).

For data set [2], the system named is human osteoclasts. Briefly: Human osteoclast resorption assay. The following applies: human osteoclast activity, read-out: Cell-based % Inh. @ 1 μM Human. As to the method: Bone resorption was studied using a model where human osteoclast precursor cells were cultured on bovine bone slices for 9 days and allowed to differentiate into bone-resorbing osteoclasts. The formed mature osteoclasts were then allowed to resorb bone. The assay was performed by Pharmatest Services Ltd, ItAinen Pitkakatu 4C, Turku, Finland. After the culture period, bone collagen degradation products were quantified from the culture medium as an index of bone resorption. Inhibitor compounds were added into the cell cultures after the differentiation period and their effects on the resorbing activity of mature osteoclasts were determined. The studies included a baseline group without added compounds and a positive control group where a potent cathepsin K inhibitor E-64 was added.
Human peripheral blood monocytes were suspended to culture medium and allowed to attach to bovine bone slices. The bone slices were transferred into 96-well tissue culture plates containing culture medium with appropriate amounts of important growth factors favouring osteoclast differentiation, including M-CSF, RANK-ligand and TGF-β. The cells were incubated in a CO2 incubator in humidified atmosphere of 95% air and 5% carbon dioxide at 37° C. At day 7 when osteoclast differentiation was complete, the culture medium was replaced with culture medium containing conditions favouring osteoclast activity. The cell culture was continued for an additional 2 days, during which the formed mature osteoclasts were allowed to resorb bone in the presence of vehicle, control inhibitor (E64) or test compounds. At the end of the culture, bone collagen degradation products released into the culture medium were determined using a commercially available ELISA method (CrossLaps® for culture, Nordic Bioscience, Herlev, Denmark) as an index of bone resorption (see Bagger, Y. Z., et al, J. Bone. Miner. Res. 14 (suppl. 1), S370).

The next data set deals with rat osteoclasts. Briefly: Rat osteoclast resorption assay. The following applies: read-out: Cell-based % Inh. @ 1 μM Rat. Here is the method:
Bone resorption was studied using a model where mature osteoclasts derived from rat bone were cultured on bovine bone slices for 3 days and allowed to resorb bone in the presence of inhibitor, positive control (E-64) or vehicle. More specifically, tibia, femori and humeri were removed from 1 day old rat pups. The endosteal surfaces of the bones were scraped with a scapelto release osteoclasts into the culture medium and the osteoclasts were allowed to attach to bovine bone slices. After the culture period, bone collagen degradation products were quantified from the culture medium as an index of bone resorption. The assay was performed by Pharmatest Services Ltd, Itilinen Pitkakatu 4C, Turku, Finland.

Data set [3] in a line: Plasma incubations (human plasma stability). It counts as in vitro ADME. Conditions: 37° C. As to the method: Human and rat plasma were purchased from Innovative Research Inc. (Southfield. MI, USA). Compounds were taken from 5 mM DMSO stock solutions and added to plasma, which had previously been incubated at 37° C., to give a final concentration of 25 μM and re-incubated. Aliquots were removed at 2 and 60 minutes and quenched with an equal volume of cold acetonitrile. After mixing vigorously, the precipitated protein matter was removed by filtration (Multiscreen Solvinert filter plates, Millipore, Bedford, Mass., USA) and the filtrate analysed by reverse phase HPLC with mass spectrometric detection, using single ion monitoring of the [M+H]^+ species. Metabolic turnover was determined by comparison of peak areas from the ion chromatograms of the parent compound at 2 and 60 minutes and expressed as percent remaining at 1 hour: […]

A short description of data set [4]: Liver microsomal incubations (HLM stability). The class given is in vitro ADME. Conditions: human liver microsomes. Here is the method:
Human and rat liver microsomes were purchased from BD Gentest (Woburn, Mass., USA) and β-nicotinamide adenine dinucleotide 2′-phosphate reduced tetrasodium salt (NADPH) was purchased from Sigma-Aldrich (Poole, Dorset, UK). All liver microsome incubations were carried out in 50 mM potassium phosphate buffer at pH 7.4, with a final microsomal protein concentration of 0.5 mg/mL. Compounds were taken from 5 mM DMSO stock solutions and diluted in incubation buffer to give a final concentration of […] with a final DMSO concentration of 0.5% v/v. In brief, compounds were added to the incubation buffer along with the liver microsomes and incubated at 37° C. for 10 minutes. The reaction was then initiated by the addition of NADPH, previously dissolved in incubation buffer, to give a final concentration of 1 mM and re-incubated at 37° C. Aliquots were removed at 2 and 60 minutes and quenched with an equal volume of cold acetonitrile. After mixing vigorously, the precipitated protein matter was removed by filtration (Multiscreen Solvinert filter plates, Millipore, Bedford, Mass., USA) and the filtrate analysed by reverse phase HPLC with mass spectrometric detection, using single ion monitoring of the [M+H]^+ species. Metabolic turnover was determined by comparison of peak areas from the ion chromatograms of the parent compound at 2 and 60 minutes and expressed as percent remaining at 1 hour.

Data set [5] can be described thus: LogD determinations (shake-flask, octanol/PBS). Conditions: 1-octanol/phosphate buffered saline; pH 7.4; ion-count method. The class given is physicochemical. Here is the method: LogD(PBS) determinations were performed in 96 well microtitre plates using a miniaturised “shake-flask” method. In brief, compounds were taken from 10 mM DMSO stock solutions and added to wells containing equal volumes of phosphate buffered saline (10 mM; pH 7.4) (PBS) and 1-octanol (Sigma-Aldrich, Poole, Dorset, UK) to give a final concentration of 50 μM. The plates were then capped and mixed vigorously for 1 hour on a microtitre plate shaker, after which they were left to stand, allowing the PBS and octanol phases to separate. The PBS layer was analysed by reverse phase HPLC with mass spectrometric detection, using single ion monitoring of the [M+H]^+ species. LogD(PBS) was determined by comparison of the peak area from the ion chromatogram of the compound in the PBS phase with that of a 50 μM standard of the same compound dissolved in acetonitrile/water (50:50) and calculated using the following formula: […]
Where AUCstd and AUCpbs are the peak areas from the standard and test ion chromatograms respectively.

Data set [6] relates to human osteoclasts. The following applies: human osteoclast, literature value; cited from earlier work.

For `CCC(C)[C@H](NC(=O)c1ccc(N2CCN(C)CC2)cc1)C(=O)N1CC[C@H]2OCC(=O)[C@H]21` (stereo in doubt) [Example 9, N-((2S,3S)-3-methyl-1-oxo-1-((3aS,6aR)-3-oxodihydro-2H-furo [3,2-b]pyrrol-4(5H,6H,6aH)-yl)pentan-2-yl)-4-(4-methylpiperazin-1-yl)benzamide], the Ki in data set [1] came to 5 nM. Besides, the figures for the inhibition at 1 µM in the data set with human osteoclasts [2] and in the data set on rat osteoclasts were 77% and 10%, respectively. The “Human Plasma Stability % rem. @ 1 hr” value in data set [3] is reported as 91%. Besides, the “HLM % rem. @ 1 hr” value in data set [4] is reported as 94%. Further, the logD in data set [5] is 1.15.
Take `CC(C)C[C@H](NC(=O)c1ccc(N2CCN(C)CC2)cc1)C(=O)N1CC[C@H]2OCC(=O)[C@H]21` [Example 1, reference compound]: the results for the inhibition at 1 µM in the data set on human osteoclasts [2] and in the data set with rat osteoclasts were 55% and 43%, respectively. In addition, the “Human Plasma Stability % rem. @ 1 hr” value in data set [3] turned out to be 95%. The “HLM % rem. @ 1 hr” value in data set [4] was 95%.
On to `CCN1CCN(c2ccc(C(=O)N[C@@H](CC(C)C)C(=O)N3CC[C@H]4OCC(=O)[C@H]43)cc2)CC1` [Example 2, 4-(4-ethylpiperazin-1-yl)-N—((S)-4-methyl-1-oxo-1-((3aS,6aR)-3-oxodihydro-2H-furo[3,2-b]pyrrol-4(5H,6H,6aH)-yl)pentan-2-yl)benzamide, reference compound], for which the figures for the inhibition at 1 µM with human osteoclasts [2] and in the data set on rat osteoclasts were 58% and 40%, respectively. In addition, the “Human Plasma Stability % rem. @ 1 hr” value in data set [3] is listed as 93%. In addition, the “HLM % rem. @ 1 hr” value in data set [4] is recorded as 88%.
As for `CN1CCN(c2ccc(C(=O)N[C@@H](CC(C)(C)C)C(=O)N3CC[C@H]4OCC(=O)[C@H]43)cc2)CC1` [Example 3, N—((S)-4,4-dimethyl-1-oxo-1-((3aS,6aR)-3-oxo-dihydro-2H-furo[3,2-b]pyrrol-4(5H,6H,6aH)-yl)pentan-2-yl)-4-(4-methylpiperazin-1-yl)benzamide], in data set [1], the Ki came to 4 nM. The inhibition at 1 µM with human osteoclasts [2] came out at 79%; with rat osteoclasts it was 75%. Further, in data set [3], the “Human Plasma Stability % rem. @ 1 hr” value is listed as 95%. In data set [4], the “HLM % rem. @ 1 hr” value was 96%. In data set [5], this molecule gave a logD of 0.87.
`CCCN1CCN(c2ccc(C(=O)N[C@@H](CC(C)(C)C)C(=O)N3CC[C@H]4OCC(=O)[C@H]43)cc2)CC1` [Example 4, N—((S)-4,4-dimethyl-1-oxo-1-((3aS,6aR)-3-oxo-dihydro-2H-furo[3,2-b]pyrrol-4(5H,6H,6aH)-yl)pentan-2-yl)-4-(4-propylpiperazin-1-yl)benzamide]: in data set [1], the Ki is 12 nM. Besides, the inhibition at 1 µM with human osteoclasts [2] was found to be 75%; with rat osteoclasts, 72%. Also, the “Human Plasma Stability % rem. @ 1 hr” value in data set [3] came out at 92%. Moreover, the “HLM % rem. @ 1 hr” value in data set [4] was found to be 82%. This molecule gave a logD in data set [5] of 1.87.
As to `COCCN1CCN(c2ccc(C(=O)N[C@@H](CC(C)(C)C)C(=O)N3CC[C@H]4OCC(=O)[C@H]43)cc2)CC1` [Example 5, N—((S)-4,4-dimethyl-1-oxo-1-((3aS,6aR)-3-oxo-dihydro-2H-furo[3,2-b]pyrrol-4(5H,6H,6aH)-yl)pentan-2-yl)-4-(4-(2-methoxyethyl)piperazin-1-yl)benzamide], the Ki in data set [1] turned out to be 14 nM. Further, the inhibition at 1 µM in the data set on human osteoclasts [2] was 72%; in the data set with rat osteoclasts it was 79%. Also, in data set [3], the “Human Plasma Stability % rem. @ 1 hr” value is on record as 90%. Moreover, in data set [4], the “HLM % rem. @ 1 hr” value is 92%. This molecule also came in with a logD in data set [5] of 1.51.
Turning to `CN1CCN(c2ccc(C(=O)N[C@H](C(=O)N3CC[C@H]4OCC(=O)[C@H]43)C(C)(C)C)cc2)CC1` [Example 8, N—((S)-3,3-dimethyl-1-oxo-1-((3aS,6aR)-3-oxo-dihydro-2H-furo[3,2-b]pyrrol-4(5H,6H,6aH)-yl)butan-2-yl)-4-(4-methylpiperazin-1-yl)benzamide], in data set [1], the Ki came to 6 nM. The inhibition at 1 µM in the data set on human osteoclasts [2] came out at 82%; with rat osteoclasts, 20%. Besides, the “Human Plasma Stability % rem. @ 1 hr” value in data set [3] turned out to be 93%. For the same molecule, the “HLM % rem. @ 1 hr” value in data set [4] was 89%. In addition, the logD in data set [5] is 0.81.
As to `CC(C)C[C@H](NC(=O)c1ccc(C(C)(C)C)cc1)C(=O)N1CC[C@H]2OCC(=O)[C@H]21` [Prior art compound 23, reference compound], the “Human Plasma Stability % rem. @ 1 hr” value in data set [3] was determined as 75%. Besides, in data set [4], the “HLM % rem. @ 1 hr” value came out at 70%. For the same molecule, the “Cell-based % Inh. @ 1 μM Human (Lit.)” value in the data set with human osteoclasts [6] is reported as “Lit. 60%”.
